Source: patent US4112076A, “Epi-daunomycin and epi-adriamycin compounds and method of use” (priority 1975, dated 1978)
≈ marks a conversion by molar mass, not a printed value. Entries after “also recorded” stand apart in the source; their conditions may differ. Where two headings read alike, the source gives them in different places.

Assays:
[1] = tested on: experimental mouse tumors; experiment: Experimental mouse tumors (overall); assay type: in vivo; conditions: compared with adriamycin
Protocol: The test was carried out on groups of 10 mice (Swiss CD1). The compound under examination was administered intraperitoneally in varying doses to the test animals one day after intraperitoneal inoculation with 1×10^6 tumor cells/mouse.
(§1) The above compound was tested in comparison with adriamycin in several in vitro systems and experimental mouse tumors.

L 1210 leukemia = experiment: Ascitic leukemia L 1210, treatment i.p. on day 1; assay type: in vivo, mouse
Source text: (§2) Activity of 4-demethoxy-4'-epi-adriamycin on
(§3) ascitic leukemias. Treatment i.p. on day 1.
(§4) ^a Median survival time, % over untreated controls
(§5) ^b Long term survivors at 60 days

P 388 leukemia = experiment: Ascitic leukemia P 388, treatment i.p. on day 1; assay type: in vivo, mouse
Source text: as §2, §3, §4, §5

Hela cells = experiment: Cloning efficiency of Hela cells in vitro (colony inhibition); assay type: cell-based; conditions: Homo sapiens
Protocol: After treatment for 2, 8 and 24 hours, Hela cells were seeded (200 cells per plate) and the number of colonies determined 8 days later. The inhibiting dose (ID50) represents the does which produces a 50% inhibition of colonies.
^a cloning efficiency of Hela cells

several in vitro systems = experiment: Several in vitro systems, comparison with adriamycin; assay type: cell-based; conditions: Table 6
Protocol: as §1

[2] = tested on: Moloney Sarcoma Virus (MSV); experiment: Formation of foci by Moloney Sarcoma Virus (MSV) in vitro (antiviral action); assay type: cell-based; conditions: Fibroblast, 72 h
Protocol: (§6) The test compound was evaluated on mouse embryo fibroblast (MEF) cultures infected with MSV and on similar uninfected cultures. After a treatment of three days the inhibiting doses (ID50) were evaluated on cell proliferation in uninfected cultures (cytotoxic action) and on MSV foci formation in infected cultures (antiviral action).
^b inhibition of MSV foci formation

[3] = Proliferation of uninfected mouse embryo fibroblast (MEF) cultures (cytotoxic action); assay type: cell-based; conditions: mouse, mouse embryo fibroblasts
Protocol: as §6
(§7) ^c inhibition of mouse embryo fibroblasts proliferation

Gross leukemia = experiment: Gross leukemia, treatment i.v. on days 1 to 3; assay type: in vivo, mouse
Source text: On Gross leukemia (which is a systemic tumor transplanted i.v.), the increase in the life span of mice treated with the two compounds at equitoxic doses was similar.
Activity of 4-demethoxy-4'-epi-adriamycin
on Gross leukemia. Treatment i.v. on days
Average data of 2 experiments^a.
^a See legends to Table 7.

solid sarcoma 180 = experiment: Solid sarcoma 180, treatment i.v. on days 1 to 5; assay type: in vivo, mouse
Source text: as §2
solid sarcoma 180. Treatment i.v. on days 1 to 5.
Average data of 2 experiments.
^a Tumor weight on day 11, % over untreated controls.

[4] = tested on: Ascites lymphocitic P 388 Leukemia; experiment: Ascites lymphocitic P 388 Leukemia in CDF1 mice, i.p. treatment days 1-9; assay type: in vivo, mouse (male CDF1); conditions: for Tumor evaluation, median survival time: control 12.1 days
[5] = tested on: mouse embryo fibroblast (MEF) cultures; experiment: Proliferation of uninfected mouse embryo fibroblast (MEF) cultures (cytotoxic action); assay type: cell-based
Protocol: as §6, §7

Compound: C[C@@H]1O[C@@H](O[C@H]2C[C@](O)(C(=O)CO)Cc3c(O)c4c(c(O)c32)C(=O)c2ccccc2C4=O)C[C@H](N)[C@H]1O [4-demethoxy-4'-epi-adriamycin]
- antitumor activity ([1]; all the systems tested): remarkable antitumor activity; also recorded: higher antitumor activity in mice, similar to adriamycin
- factor by which active doses are lower than those of adriamycin ([1]; mice): 10 times
- LTS (long term survivors at 60 days) (L 1210 leukemia; 0.25 mg/Kg i.p. day 1): 0/11
- T/C % (median survival time, % over untreated controls) (L 1210 leukemia; 0.25 mg/Kg i.p. day 1): 155%
- Toxic deaths (L 1210 leukemia; 0.25 mg/Kg i.p. day 1): 0/11
- LTS (long term survivors at 60 days) (L 1210 leukemia; 0.5 mg/Kg i.p. day 1): 2/11
- T/C % (median survival time, % over untreated controls) (L 1210 leukemia; 0.5 mg/Kg i.p. day 1): 166%
- Toxic deaths (L 1210 leukemia; 0.5 mg/Kg i.p. day 1): 0/11
- LTS (long term survivors at 60 days) (L 1210 leukemia; 1 mg/Kg i.p. day 1): 0/11
- T/C % (median survival time, % over untreated controls) (L 1210 leukemia; 1 mg/Kg i.p. day 1): 133%
- Toxic deaths (L 1210 leukemia; 1 mg/Kg i.p. day 1): 11/11
- antitumor activity at the optimal (non-toxic) dose vs adriamycin (L 1210 leukemia; L 1210): comparable to that of adriamycin
- LTS (long term survivors at 60 days) (P 388 leukemia; 0.25 mg/Kg i.p. day 1): 0/10
- T/C % (median survival time, % over untreated controls) (P 388 leukemia; 0.25 mg/Kg i.p. day 1): 143%
- Toxic deaths (P 388 leukemia; 0.25 mg/Kg i.p. day 1): 0/10
- LTS (long term survivors at 60 days) (P 388 leukemia; 0.5 mg/Kg i.p. day 1): 1/10
- T/C % (median survival time, % over untreated controls) (P 388 leukemia; 0.5 mg/Kg i.p. day 1): 162%
- Toxic deaths (P 388 leukemia; 0.5 mg/Kg i.p. day 1): 1/10
- LTS (long term survivors at 60 days) (P 388 leukemia; 1 mg/Kg i.p. day 1): 0/10
- T/C % (median survival time, % over untreated controls) (P 388 leukemia; 1 mg/Kg i.p. day 1): 162%
- Toxic deaths (P 388 leukemia; 1 mg/Kg i.p. day 1): 8/10
- antitumor activity at the optimal (non-toxic) dose vs adriamycin (P 388 leukemia; P 388): comparable to that of adriamycin
- IC50 (Hela cells; 2 (hours) treatment, Table 6, read-out: ID50, cloning efficiency of Hela cells): 0.35 ng/mL (≈ 0.682 nM)
- IC50 (Hela cells; 8 (hours) treatment, Table 6, read-out: ID50, cloning efficiency of Hela cells): 0.1 ng/mL (≈ 0.195 nM)
- IC50 (Hela cells; 24 (hours) treatment, Table 6, read-out: ID50, cloning efficiency of Hela cells): 0.03 ng/mL (≈ 0.0584 nM)
- in vitro activity compared with adriamycin (several in vitro systems): definitely more active than adriamycin
- IC50 ([2]; read-out: ID50, inhibition of MSV foci formation): < 0.003 ng/mL
- CC50 at 72 h [3]: < 0.003 ng/mL
- LTS (long term survivors) (Gross leukemia; 0.35 mg/Kg i.v. days 1 to 3): 2/20
- T/C % (median survival time, % over untreated controls) (Gross leukemia; 0.35 mg/Kg i.v. days 1 to 3): 153%
- Toxic deaths (Gross leukemia; 0.35 mg/Kg i.v. days 1 to 3): 0/10
- LTS (long term survivors) (Gross leukemia; 0.45 mg/Kg i.v. days 1 to 3): 0/20
- T/C % (median survival time, % over untreated controls) (Gross leukemia; 0.45 mg/Kg i.v. days 1 to 3): 196%
- Toxic deaths (Gross leukemia; 0.45 mg/Kg i.v. days 1 to 3): 0/20
- LTS (long term survivors) (Gross leukemia; 0.55 mg/Kg i.v. days 1 to 3): 0/10
- T/C % (median survival time, % over untreated controls) (Gross leukemia; 0.55 mg/Kg i.v. days 1 to 3): 186%
- Toxic deaths (Gross leukemia; 0.55 mg/Kg i.v. days 1 to 3): 0/10
- LTS (long term survivors) (Gross leukemia; 0.6 mg/Kg i.v. days 1 to 3): 0/10
- T/C % (median survival time, % over untreated controls) (Gross leukemia; 0.6 mg/Kg i.v. days 1 to 3): 214%
- Toxic deaths (Gross leukemia; 0.6 mg/Kg i.v. days 1 to 3): 1/10
- LTS (long term survivors) (Gross leukemia; 0.65 mg/Kg i.v. days 1 to 3): 0/10
- T/C % (median survival time, % over untreated controls) (Gross leukemia; 0.65 mg/Kg i.v. days 1 to 3): 207%
- Toxic deaths (Gross leukemia; 0.65 mg/Kg i.v. days 1 to 3): 0/10
- increase in life span vs adriamycin (Gross leukemia; equitoxic doses): similar
- T/C % (tumor weight on day 11, % over untreated controls) (solid sarcoma 180; 0.06 mg/Kg i.v. days 1 to 5): 87.3%
- Toxic deaths (solid sarcoma 180; 0.06 mg/Kg i.v. days 1 to 5): 0/10
- T/C % (tumor weight on day 11, % over untreated controls) (solid sarcoma 180; 0.12 mg/Kg i.v. days 1 to 5): 85.1%
- Toxic deaths (solid sarcoma 180; 0.12 mg/Kg i.v. days 1 to 5): 2/16
- T/C % (tumor weight on day 11, % over untreated controls) (solid sarcoma 180; 0.25 mg/Kg i.v. days 1 to 5): 41.9%
- Toxic deaths (solid sarcoma 180; 0.25 mg/Kg i.v. days 1 to 5): 4/19
- Toxic deaths (solid sarcoma 180; 0.5 mg/Kg i.v. days 1 to 5): 9/9
- inhibition of tumor growth on the eleventh day vs adriamycin (solid sarcoma 180; equitoxic doses): slightly lower than that of adriamycin

Compound: COc1cccc2c1C(=O)c1c(O)c3c(c(O)c1C2=O)C[C@@](O)(C(C)=O)C[C@@H]3O[C@H]1C[C@@H](N)[C@@H](O)[C@H](C)O1 [3'-4'-epi-daunomycin, 3',4'-epi-daunomycin]
- IC50 (Hela cells; 2 h, read-out: ID50 (action on Hela cells), 2 hours treatment, Table 1): 270000 ng/mL (≈ 512000 nM)
- IC50 (Hela cells; 8 h, read-out: ID50 (action on Hela cells), 8 hours treatment, Table 1): 220000 ng/mL (≈ 417000 nM)
- IC50 (Hela cells; 24 h, read-out: ID50 (action on Hela cells), 24 hours treatment, Table 1): 190000 ng/mL (≈ 360000 nM)
- IC50 ([2]; read-out: Antiviral action ID50): 45 ng/mL (≈ 85.3 nM)
- Toxicity (survivors at fifth day) ([4]; 1.56 mg/kg i.p., days 1-9): 6/6
- Tumor evaluation, T/C % ([4]; 1.56 mg/kg i.p., days 1-9): 129%
- Tumor evaluation, median survival time ([4]; 1.56 mg/kg i.p., days 1-9): 15.7 days
- Toxicity (survivors at fifth day) ([4]; 3.13 mg/kg i.p., days 1-9): 6/6
- Tumor evaluation, T/C % ([4]; 3.13 mg/kg i.p., days 1-9): 142%
- Toxicity (survivors at fifth day) ([4]; 6.25 mg/kg i.p., days 1-9): 6/6
- Tumor evaluation, T/C % ([4]; 6.25 mg/kg i.p., days 1-9): 155%
- Toxicity (survivors at fifth day) ([4]; 12.5 mg/kg i.p., days 1-9): 6/6
- Tumor evaluation, T/C % ([4]; 12.5 mg/kg i.p., days 1-9): 173%
- Tumor evaluation, median survival time ([4]; 12.5 mg/kg i.p., days 1-9): 21 days
- Toxicity (survivors at fifth day) ([4]; 25 mg/kg i.p., days 1-9): 6/6
- Tumor evaluation, T/C % ([4]; 25 mg/kg i.p., days 1-9): 231%
- Tumor evaluation, median survival time ([4]; 25 mg/kg i.p., days 1-9): 28 days
- Cures ([4]; 25 mg/kg i.p., days 1-9, evaluated day 20): 1
- anti-tumor activity in tumor bearing animals ([4]; Table 3): distinct anti-tumor activity
- cytotoxic activity in vitro compared with daunomycin [5]: less cytotoxic acitivity in vitro, when compared with daunomycin
- CC50 at 72 h ([3]; uninfected MEF, three days treatment, Table 2, read-out: Cytotoxic action ID50): 90 ng/mL (≈ 171 nM)
